{"source": "patent US7951405B2", "about": "(priority 2004, dated 2011)", "key": {"[1]": {"assay_type": "in vivo", "description": "FIG. […]\n(§1) Weight loss was calculated as percent change in mean group body weight, using the formula: ((W−W0)/W0)×100 • where ‘W’ represents mean body weight of the treated group at a particular day, and ‘W0’ represents mean body weight of the same group at start of treatment. Maximum weight loss was also calculated using the above formula, giving the maximum percentage of body weight lost at any time in the entire experiment for a particular group. Treatment efficacy was assessed by tumor growth inhibition. Tumour volumes of treated groups were given as percentages of tumor volumes of the control groups (% T/C), using the formula: 100×((T−T0)/(C−C0)) • where ‘T’ represents mean tumor volume of a treated group on a specific day during the experiment, ‘T0’ represented mean tumor volume of the same group on the first day of treatment, C represents mean tumor volume of a control group on a particular day of the experiment, and C0 represents mean tumor volume of the same group on the first day of treatment."}, "H460a NSCLC xenograft": {"tested_on": "H460a NSCLC xenograft", "test": "Tumor growth inhibition in H460a NSCLC xenograft model", "assay_type": "in vivo, athymic nude mice", "description": "(§2) Mice were implanted with H460a NSCLC cells. […] Tumor size was measured 3 times per week. Values are means, n=10.\nas §2\n(§3) H460a cells (provided by Dr Jack Roth, MD, Anderson) were grown in Dulbecco's Modified Eagle Media (DMEM) supplemented with 10% Foetal Bovine Serum (FBS). A549 cells (American Type Culture Collection [Manassas, Va.] were grown in Roswell Park Memorial Institute medium (RPMI) 1640+10% FBS. The cell concentrations for implant were 1×10^7 cells/0.2 mL for H460a and 7.5×10^6 cells/0.2 mL for A549.\n(§4) Cells were suspended in phosphate-buffered saline, and implanted subcutaneously in the right flank of each mouse. Once palpable tumours were established, animals were randomised so that all groups had similar starting mean tumour volumes of 100-150 mm^3. Tumour measurements and mouse weights were taken three times per week. Animals were individually monitored throughout the experiment.\nAll groups were treated daily for 3 weeks. […]\nWeight loss was calculated as percent change in mean group body weight, using the formula: ((W−W0)/W0)×100 • where ‘W’ represents mean body weight of the treated group at a particular day, and ‘W0’ represents mean body weight of the same group at start of treatment. Maximum weight loss was also calculated using the above formula, giving the maximum percentage of body weight lost at any time in the entire experiment for a particular group. Treatment efficacy was assessed by tumor growth inhibition. […]\n(§5) Tumor growth inhibition was calculated using the formula: 100−% T/C\n(§6) Tumor volume (mm^3) was calculated using the ellipsoid formula: (Dx(d^2))/2 • where ‘D’ represents the large diameter of the tumor, and ‘d’ represents the small diameter. In some cases, tumor regression and/or percentage change in tumor volume was calculated using the formula: ((T−T0)/T0)×100 • where ‘T’ represents mean tumor volume of the treated group at a particular day, and ‘T0’ represents mean tumor volume of the same treated group at the start of treatment."}, "A549 NSCLC xenograft": {"tested_on": "A549 NSCLC xenograft", "assay_type": "in vivo", "description": "Mice were implanted with A549 NSCLC cells. […] Tumor size was measured 3 times per week. Values are means, n=10.\nas §3, §4\nAll groups were treated daily for 3 weeks.\nAll groups were treated every 6 days for 3 weeks (a total of three injections).\nas §1, §5, §6"}, "[2]": {"details": "cited from earlier work"}, "[3]": {"test": "Pathology/necropsy and tumor immunohistochemistry in treated xenograft mice", "from_the_text": "At necropsy, skin samples were fixed in 10% buffered formalin, embedded in paraffin, sectioned at 5μ and stained with haematoxylin and eosin.\nFive mice per treatment from all remaining groups were given a full necropsy at the end of the study.\nTumor samples were fixed by immersion in 10% zinc formalin then processed in a Tissue-Tek® VIP (Sakura) and embedded in paraffin. Sections for immunohistochemistry were cut at 5μ. Pre-immune rabbit or goat serum (Dako Ltd) was used as the negative control. Sections were immersed in Target Retrieval Solution (Dako Ltd) and heated to 94° C. in a steamer (Black & Decker) for 20 minutes. Endogenous peroxidase activity was quenched with 6% H2O2 in methanol for 15 minutes.\nFor platelet endothelial cell adhesion molecule (PECAM-1, CD31) antigen and EGFR antigen, the sections were incubated overnight at room temperature with a polyclonal goat anti-PECAM-1 IgG (Santa Cruz Biotechnology, Santa Cruz, Calif.) diluted 1:800 in Antibody Diluent (Dako Ltd) or with a polyclonal rabbit anti-EGFR IgG (BioGenex, San Ramon, Calif.) diluted 1:50 in Antibody Diluent (Dako Ltd). Sections were incubated with Vectastain Elite ABC-peroxidase (Vector Laboratories) for 45 minutes at room temperature.\nTo detect apoptosis, the TUNEL TdT-FragEL™ DNA fragmentation detection kit (Oncogene Research Products, San Diego, Calif.) was used according to the manufacturer's recommendations. For all four antigens, Vector Nova Red (Vector Laboratories) was the final chromogen and haematoxylin the nuclear counterstain."}, "[4]": {"test": "Single-dose pharmacokinetics of erlotinib in non-tumor bearing mice", "assay_type": "in vivo, female nu/nu athymic mice", "description": "(§7) For single-dose pharmacokinetics (PK), blood samples from three mice per time point were collected by cardiac puncture at 5, 15, 30, 60 minutes and 2, 4, 8, 16, 24 hours post-dose. For chronically treated animals, blood samples from two or three mice per time point were collected via the retro-orbital sinus at 1 and 6 hours. Collection tubes contained ethylene diamine tetra-acetic acid (EDTA) as anticoagulant. Samples were stored at −70° C. […] PK parameters were estimated by non-compartmental analysis of the composite data, using the PK evaluation programme WinNonlin PRO® version 3.1 (Pharsight Inc).\nThree animals per time point were evaluated for PK data (FIG. 3)."}, "[5]": {"test": "Chronic-dose plasma and tumor concentrations of erlotinib in tumor-bearing mice", "assay_type": "in vivo, nu/nu athymic mice", "description": "On day 28 post tumor implant, blood (from the retro-orbital sinus) and tumor samples were collected at 1 and 6 hours post dosing. […] Values are means±SD, n=3.\nas §7"}, "[6]": {"details": "erlotinib monotherapy, treated xenografts"}}, "note": "Entries after “also recorded” stand apart in the source; their conditions may differ. Read-outs that look alike come from different tables or passages of the source.", "data": [{"molecule": "N.N.[Cl][Pt][Cl]", "note": "[cisplatin]", "values": [{"measurement": "MTD", "setting": "[1]; cisplatin every 6 days x3 i.p., athymic nude mice", "value": 6, "unit": "mg/kg"}, {"measurement": "Tumor growth inhibition", "setting": "H460a NSCLC xenograft; cisplatin 1.5 mg/kg i.p. every 6 days", "value": 42, "unit": "%"}, {"measurement": "Tumor growth inhibition", "setting": "H460a NSCLC xenograft; cisplatin 6 mg/kg i.p. every 6 days", "value": 81, "unit": "%"}, {"measurement": "Tumor growth inhibition", "setting": "A549 NSCLC xenograft; cisplatin 1.5 mg/kg, non-significant", "value": 30, "unit": "%"}, {"measurement": "Extent of partial regression", "setting": "A549 NSCLC xenograft; cisplatin 6 mg/kg", "value": 2, "unit": "%"}, {"measurement": "Number of partial regressions", "setting": "A549 NSCLC xenograft; cisplatin 6 mg/kg", "value": "one"}, {"measurement": "Tumor growth inhibition", "setting": "A549 NSCLC xenograft; cisplatin 6 mg/kg, day 47 post tumor implantation", "value": 88, "unit": "%"}, {"measurement": "MTD", "setting": "[2]; cisplatin every 4 days x3 i.v. in nude mice (Riccardi 2001)", "value": 4, "unit": "mg/kg"}, {"measurement": "MTD", "setting": "[2]; cisplatin every 6 days x2 i.v. in nude mice (Perez-Soler 2001)", "value": 4, "unit": "mg/kg"}, {"measurement": "MTD", "setting": "[2]; cisplatin every 6 days x3 i.p. in C57/B16 mice (van Moorsel 1999)", "value": 6, "unit": "mg/kg"}, {"measurement": "Primary microscopic kidney lesions", "setting": "[3]; cisplatin alone and in combination, severity dose dependent", "value": "tubular necrosis and tubular basophilia"}]}, {"molecule": "C#Cc1cccc(Nc2ncnc3cc(OCCOC)c(OCCOC)cc23)c1", "note": "[erlotinib, [6,7-bis(2-methoxyethoxy)-4-quinazolin-4-yl]-(3-ethynylphenyl) amine]", "values": [{"measurement": "Time of maximum plasma concentration post dose", "setting": "[4]; 20 and 100 mg/kg single dose by gavage", "value": "0.5 to 1.0", "unit": "h"}, {"measurement": "Dose proportionality of exposure (AUC)", "setting": "[4]; 20 vs 100 mg/kg single dose", "value": "dose-proportional"}, {"measurement": "Mean maximum plasma concentration", "setting": "[4]; erlotinib 20 mg/kg single dose by gavage", "value": "~9,100 ng/mL"}, {"measurement": "Mean maximum plasma concentration", "setting": "[4]; erlotinib 100 mg/kg single dose by gavage", "value": "approximately 24,000 ng/mL"}, {"measurement": "Correlation of tumor concentrations with plasma concentrations", "setting": "[5]; H460a tumor-bearing mice", "value": "correlated well"}, {"measurement": "Dose dependence of exposure", "setting": "[5]; ascending oral doses 6.3-150.0 mg/kg, tumor-bearing mice", "value": "dose-dependent and more than dose-proportional"}, {"measurement": "Tolerability", "setting": "[1]; erlotinib 150 mg/kg for 3 weeks, previous efficacy studies (unpublished observation)", "value": "well tolerated"}, {"measurement": "Toxicity outcome", "setting": "[1]; erlotinib 200 mg/kg group", "value": "marked weight loss and all were euthanized"}, {"measurement": "Toxicity outcome", "setting": "[1]; erlotinib 400 mg/kg group", "value": "One mouse in the 400 mg/kg group died"}, {"measurement": "Tumor regressions", "setting": "H460a NSCLC xenograft; erlotinib monotherapy dose response study", "value": "no partial or complete regressions"}, {"measurement": "Tumor growth inhibition", "setting": "A549 NSCLC xenograft; erlotinib 25 mg/kg, day 47 post tumor implantation", "value": 25, "unit": "%"}, {"measurement": "Extent of partial regression", "setting": "A549 NSCLC xenograft; erlotinib 100 mg/kg", "value": 2, "unit": "%"}, {"measurement": "Number of partial regressions", "setting": "A549 NSCLC xenograft; erlotinib 100 mg/kg", "value": "one"}, {"measurement": "Tumor growth inhibition", "setting": "A549 NSCLC xenograft; erlotinib 100 mg/kg, day 47 post tumor implantation", "value": 93, "unit": "%"}, {"measurement": "Ki-67 proliferative index in tumor", "setting": "[3]; erlotinib 1000 mg/kg (so in the source), both NSCLC xenograft tumor models", "value": "mild decrease"}, {"measurement": "Haematology and clinical chemistry parameters", "setting": "[3]; erlotinib monotherapy", "value": "no changes"}, {"measurement": "Skin lesions (macroscopic)", "setting": "[3]; erlotinib monotherapy (100 mg/kg/day for 21 days), transient", "value": "substantial reddening and crusting of the skin of the muzzle; also recorded: reddened and flaky"}, {"measurement": "Angiogenesis, microvascular density (MVD) via CD31 staining", "setting": "[3]; [6]", "value": "no clear effect"}, {"measurement": "Frequency of apoptosis in tumor cells (TUNEL)", "setting": "[3]; [6]", "value": "no significant difference"}]}]}
